Experimental findings from patent US20210330611A1, “THERAPY FOR NEUROLOGICAL DISEASES/DISORDERS” (priority 2020, published 2021) are described below.

Series [1] relates to fibrin-induced microglia activation. As to the kind of experiment: Image-based assay of fibrin-induced microglia activation (HTS and dose response). Format: cell-based, rat. The conditions noted are these: for inhibition at 10 µM: Rattus norvegicus, Microglia, read-out: Fibrin % inhibition.
The test system of series [2] is fibrin- and LPS-induced microglia activation. In words: cells. It counts as cell-based, rat.
For series [3], the system named is primary rat microglia.
In series [4] the test system is LPS-induced microglia activation. In words: Image-based assay of LPS-induced microglia activation (HTS and dose response). The conditions noted are these: for inhibition at 10 µM: Rattus norvegicus, Microglia, 48 h, read-out: LPS % inhibition. Format: cell-based, rat.
The test system of series [5] is primary rat microglia. This is another data set of the same source.
Setting [6] is: quadrant by fibrin and LPS inhibition in HTS of 1907 compounds.
[7] abbreviates: primary microglia HTS, fibrin stimulation, increased cell size (>800 μm^2) as marker of activation.
Where [8] appears, read: primary microglia HTS, LPS stimulation, increased cell size (>800 μm^2) as marker of activation.

Where a name gives a salt, the structure may show the parent alone. Read-outs that look alike come from different tables or passages of the source.
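Throughout, for Fibrin % cell toxicity: share of dead cells sized under 150 µm2 at 10 µM in fibrin-stimulated microglia HTS.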

As to `CC(=O)NC[C@H]1CN(c2ccc(N3CCOCC3)c(F)c2)C(=O)O1` [Linezolid], the inhibition at 10 µM in series [1] is -18%; in series [4] it was 19%. For the same compound, in series [2], the “Quadrant (FIG. 5b)” value is reported as “Q4”. In addition, the “LPS % cell toxicity” value in series [3] (rat) worked out at 0%. Besides, in series [5] (rat), the “Fibrin % cell toxicity” value worked out at 1%.
Consider `[H-].[Li+]` [Lithium hydride], for which, in series [1], the Fibrin % inhibition is −6%. In addition, the “Quadrant (FIG. 5b)” value in series [2] is reported as “Q4”. Further, the “LPS % cell toxicity” value in series [3] was 0%. Also, the LPS % inhibition in series [4] amounted to 20%. The “Fibrin % cell toxicity” value in series [5] was 1%.
Turning to `O=NN(CCCl)C(=O)NC1CCCCC1` [Lomustine], the inhibition at 10 µM in series [1] (primary microglia HTS, fibrin stimulation, activation = cell size >800 μm2) came to 0%; in series [4] (primary microglia HTS, LPS stimulation, activation = cell size >800 μm2), 19%. Also, the “Quadrant (FIG. 5b)” value in series [2] (setting [6]) was “Q4”. The “LPS % cell toxicity” value in series [3] (rat) came to 1%. Moreover, the “Fibrin % cell toxicity” value in series [5] (rat) was found to be 1%.
With `CN(C)C(=O)C(CCN1CCC(O)(c2ccc(Cl)cc2)CC1)(c1ccccc1)c1ccccc1` [Loperamide], the figures for the inhibition at 10 µM in series [1] and in series [4] were 12% and 63%, respectively. In series [2], the “Quadrant (FIG. 5b)” value is “Q1”. In series [3] (rat), the “LPS % cell toxicity” value is listed as 2%. Moreover, the “Fibrin % cell toxicity” value in series [5] (rat) was found to be 1%.
`CCCCc1nc(Cl)c(CO)n1Cc1ccc(-c2ccccc2-c2nnn[nH]2)cc1` [Losartan, Losartan Potassium]: the Fibrin % inhibition in series [1] (setting [7]) was −3%. Moreover, the “Quadrant (FIG. 5b)” value in series [2] (setting [6]) is reported as “Q4”. The “LPS % cell toxicity” value in series [3] was 1%. In addition, the LPS % inhibition in series [4] (setting [8]) stood at 19%. Besides, in series [5], the “Fibrin % cell toxicity” value was 1%.
With `CNCCCC12CCC(c3ccccc31)c1ccccc12` [Maprotiline hydrochloride, reference compound], the Fibrin % inhibition in series [1] (hydrochloride) came to 31%. In series [2], the Activity entry is given as “fib/LPS” and the “Quadrant (FIG. 5b)” value is given as “Q1”. The “LPS % cell toxicity” value in series [3] (rat) stood at 1%. In addition, in series [4], the inhibition at 10 µM came out at 67%. In addition, in series [5] (rat), the “Fibrin % cell toxicity” value stood at 1%.
Regarding `Cc1cccc(Nc2ccccc2C(=O)O)c1C` [Mefenamic Acid], the values for the inhibition at 10 µM in series [1] (setting [7]) and in series [4] (setting [8]) were -6% and 3%, respectively. The “Quadrant (FIG. 5b)” value in series [2] (setting [6]) is reported as “Q4”. In addition, the “LPS % cell toxicity” value in series [3] (rat) amounted to 1%. In addition, the “Fibrin % cell toxicity” value in series [5] (rat) was 1%.
Turning to `OC(c1cc(C(F)(F)F)nc2c(C(F)(F)F)cccc12)C1CCCCN1` (centres unmarked) [Mefloquine], the inhibition at 10 µM is -18% in series [1] (setting [7]) and 13% in series [4] (setting [8]). Also, the “Quadrant (FIG. 5b)” value in series [2] (setting [6]) is given as “Q4”. The “LPS % cell toxicity” value in series [3] (rat) is on record as 0%. In addition, the “Fibrin % cell toxicity” value in series [5] (rat) was determined as 1%.
In the same order, the values of `N[C@@H](Cc1ccc(N(CCCl)CCCl)cc1)C(=O)O` [Melphalan] are 28%, 3%, “Q4”, 0% and 0%.
On to `CC1CCC(C(C)C)C(O)C1` (centres unmarked) [Menthol], for which the results for the inhibition at 10 µM in series [1] and in series [4] were -20% and 0%, respectively. For the same compound, the “Quadrant (FIG. 5b)” value in series [2] is recorded as “Q4”. Further, the “LPS % cell toxicity” value in series [3] (rat) is 0%. Moreover, the “Fibrin % cell toxicity” value in series [5] (rat) is 1%.
For `Cc1ccccc1OCC(O)CO` (centres unmarked) [Mephenesin], the inhibition at 10 µM in series [1] (setting [7]) is 14%; in series [4] (setting [8]), 13%. The “Quadrant (FIG. 5b)” value in series [2] (setting [6]) is listed as “Q4”. Moreover, the “LPS % cell toxicity” value in series [3] (rat) worked out at 0%. In series [5] (rat), the “Fibrin % cell toxicity” value is recorded as 0%.
Consider `COc1ccc(CN(CCN(C)C)c2ccccn2)cc1` [Mepyramine], for which the inhibition at 10 µM is -11% in series [1] (setting [7]) and 13% in series [4] (setting [8]). Further, in series [2] (setting [6]), the “Quadrant (FIG. 5b)” value is on record as “Q4”. Besides, the “LPS % cell toxicity” value in series [3] (rat) is 0%. Besides, the “Fibrin % cell toxicity” value in series [5] (rat) is recorded as 0%.
Take `Sc1ncnc2nc[nH]c12` [Mercaptopurine]: the inhibition at 10 µM in series [1] (setting [7]) came out at 2%; in series [4] (setting [8]), 9%. Further, in series [2] (setting [6]), the “Quadrant (FIG. 5b)” value is given as “Q4”. For the same compound, in series [3] (rat), the “LPS % cell toxicity” value amounted to 0%. Also, in series [5] (rat), the “Fibrin % cell toxicity” value stood at 0%.
Regarding `CN(C)C(=N)N=C(N)N` [Metformin], the results for the inhibition at 10 µM in series [1] and in series [4] were -15% and 0%, respectively. Moreover, the “Quadrant (FIG. 5b)” value in series [2] was “Q4”. For the same compound, the “LPS % cell toxicity” value in series [3] (rat) stood at 0%. The “Fibrin % cell toxicity” value in series [5] (rat) stood at 0%.
As for `Cn1cc[nH]c1=S` [Methimazole], the inhibition at 10 µM is -29% in series [1] and 12% in series [4]. Moreover, the “Quadrant (FIG. 5b)” value in series [2] is “Q4”. Further, the “LPS % cell toxicity” value in series [3] (rat) amounted to 0%. The “Fibrin % cell toxicity” value in series [5] (rat) came out at 0%.
For `COC(C)(C)CCC[C@H](C)C/C=C/C(C)=C/C(=O)OC(C)C` [Methoprene (s)], the Fibrin % inhibition in series [1] (setting [7]) was −9%. Moreover, the “Quadrant (FIG. 5b)” value in series [2] (setting [6]) was “Q4”. Also, the “LPS % cell toxicity” value in series [3] amounted to 0%. Besides, the LPS % inhibition in series [4] (setting [8]) is 12%. For the same compound, the “Fibrin % cell toxicity” value in series [5] was 1%.
Turning to `CN(Cc1cnc2nc(N)nc(N)c2n1)c1ccc(C(=O)N[C@@H](CCC(=O)O)C(=O)O)cc1` [Methotrexate], the inhibition at 10 µM was -32% in series [1] (setting [7]) and -4% in series [4] (setting [8]). Also, in series [2] (setting [6]), the “Quadrant (FIG. 5b)” value is recorded as “Q4”. For the same compound, the “LPS % cell toxicity” value in series [3] (rat) came to 0%. For the same compound, the “Fibrin % cell toxicity” value in series [5] (rat) worked out at 1%.
In the same order, the values of `COc1c2occc2cc2ccc(=O)oc12` [Methoxsalen] are -31%, 14%, “Q4”, 0% and 0%.
In the case of `Cc1cc(C(C)(C)CC(C)(C)C)ccc1OCCOCC[N+](C)(C)Cc1ccccc1.[Cl-]` [Methylbenzethonium Chloride], in series [1] (primary microglia HTS, fibrin stimulation, compounds at 10 μM), the Fibrin % inhibition is 105%. Moreover, in series [2] (quadrant by fibrin and LPS inhibition, HTS at 10 μM), the “Quadrant (FIG. 5b)” value is recorded as “Q2”. Further, the “LPS % cell toxicity” value in series [3] was 10%. In series [4] (primary microglia HTS, LPS stimulation, compounds at 10 μM), the LPS % inhibition is given as 108%. The “Fibrin % cell toxicity” value in series [5] came to 17%.
With `CN(C)c1ccc2nc3ccc(=[N+](C)C)cc-3sc2c1` [Methylene Blue], the inhibition at 10 µM in series [1] was 25%; in series [4] it was 73%. In addition, in series [2], the “Quadrant (FIG. 5b)” value is listed as “Q1”. Moreover, in series [3] (rat), the “LPS % cell toxicity” value is 1%. Besides, the “Fibrin % cell toxicity” value in series [5] (rat) amounted to 1%.
Turning to `CC[C@@H](CO)NC(=O)[C@@H]1C=C2c3cccc4[nH]cc(c34)C[C@H]2N(C)C1` [Methylergometrine], the inhibition at 10 µM in series [1] (setting [7]) was -43%; in series [4] (setting [8]), 7%. The “Quadrant (FIG. 5b)” value in series [2] (setting [6]) is listed as “Q4”. The “LPS % cell toxicity” value in series [3] (rat) turned out to be 0%. In series [5] (rat), the “Fibrin % cell toxicity” value amounted to 0%.
With `Cc1ncc([N+](=O)[O-])n1CCO` [Metronidazole], the inhibition at 10 µM in series [1] (setting [7]) was -12%; in series [4] (setting [8]), 15%. Further, the “Quadrant (FIG. 5b)” value in series [2] (setting [6]) is “Q4”. Further, the “LPS % cell toxicity” value in series [3] (rat) turned out to be 1%. Also, in series [5] (rat), the “Fibrin % cell toxicity” value is given as 0%.
In the same order, the values of `CC(C)(C(=O)c1cccnc1)c1cccnc1` [Metyrapone] are -60%, 39%, “Q4”, 0% and 1%.
As to `Cc1cccc(C)c1OCC(C)N` (centres unmarked) [Mexiletine], the inhibition at 10 µM in series [1] was 2%; in series [4], 13%. Further, in series [2], the “Quadrant (FIG. 5b)” value is “Q4”. Further, the “LPS % cell toxicity” value in series [3] (rat) was determined as 0%. The “Fibrin % cell toxicity” value in series [5] (rat) is 1%.
As to `Cc1[nH]c(=O)c(C#N)cc1-c1ccncc1` [Milrinone], the inhibition at 10 µM in series [1] (setting [7]) was determined as 4%; in series [4] (setting [8]) it was 23%. Besides, the “Quadrant (FIG. 5b)” value in series [2] (setting [6]) is on record as “Q4”. Besides, the “LPS % cell toxicity” value in series [3] (rat) was 0%. Moreover, the “Fibrin % cell toxicity” value in series [5] (rat) stood at 0%.
Take `CO[C@@]12[C@H](COC(N)=O)C3=C(C(=O)C(C)=C(N)C3=O)N1C[C@@H]1N[C@@H]12` [Mitomycin C, Mitomycin]: the Fibrin % inhibition in series [1] (10 µM) is given as 112%. In series [2], the “Quadrant (FIG. 5b)” value was “Q2”. Moreover, in series [3], the “LPS % cell toxicity” value was found to be 49%. In series [4] (10 µM), the LPS % inhibition is given as 110%. In addition, in series [5], the “Fibrin % cell toxicity” value was 74%.
Regarding `Clc1ccc(C(c2ccccc2Cl)C(Cl)Cl)cc1` (centres unmarked) [Mitotane], the inhibition at 10 µM in series [1] (setting [7]) is -19%; in series [4] (setting [8]), -1%. Besides, in series [2] (setting [6]), the “Quadrant (FIG. 5b)” value is “Q4”. In series [3] (rat), the “LPS % cell toxicity” value was 0%. Moreover, the “Fibrin % cell toxicity” value in series [5] (rat) is on record as 0%.
Take `CC(C)(O)c1ccccc1CC[C@@H](SCC1(CC(=O)O)CC1)c1cccc(/C=C/c2ccc3ccc(Cl)cc3n2)c1` [Montelukast Sodium]: the Fibrin % inhibition in series [1] is given as 21%. The “Quadrant (FIG. 5b)” value in series [2] was “Q4”. For the same compound, in series [3] (rat), the “LPS % cell toxicity” value is given as 0%. In addition, the LPS % inhibition in series [4] turned out to be 16%. For the same compound, the “Fibrin % cell toxicity” value in series [5] (rat) amounted to 1%.
For the compound `CC(C)(O)c1ccccc1CC[C@@H](SCC1(CC(=O)O)CC1)c1cccc(/C=C/c2ccc3ccc(Cl)cc3n2)c1` [Montelukast], the Fibrin % inhibition in series [1] was −5%. In addition, the “Quadrant (FIG. 5b)” value in series [2] is on record as “Q4”. Further, the “LPS % cell toxicity” value in series [3] (rat) was found to be 0%. For the same compound, the inhibition at 10 µM in series [4] turned out to be 12%. The “Fibrin % cell toxicity” value in series [5] (rat) was 1%.
